Test results: US20140315981A1, “STRATEGIES FOR PREVENTION AND/OR TREATMENT OF DISEASES BASED ON CD40 SILENCING” (FUNDACIO INSTITUT D'INVESTIGACIO BIOMEDICA DE BELLVITGE …, priority 2011, published 2014)

Legend:
Format in all cases: in vivo
NZB/W F1 female mice [1] = assay: Survival of NZB/W F1 mice with lupus nephritis under treatment; conditions: intraperitoneal treatment from six to nine months of age
Experimental: Animals NZB/W F1 female mice (Charles River, Spain) were used. […] Mice were housed in a constant temperature room with a 12-hour dark/12-hour light cycle, and were given free access to water and a standard laboratory diet.
(§1) Treatment was given from six to nine old months. Body weight was determined twice a month. Mice were placed in metabolic cages to collect 24-hour urine specimens before treatment, and again at six, seven and eight months. Blood was obtained from the tail vein at the same intervals. At the end of the follow-up, survivor animals were sacrificed and kidney processed for histological studies.
Data are expressed as mean+SE. Overall survival was analyzed by the Kaplan-Meier method. […] All P-values were two-tailed, and a P-value <0.05 was considered significant.

NZB/W F1 female mice [2] = assay: Anti-DNA antibodies in serum by ELISA, murine lupus nephritis; conditions: FIG. 2
Experimental: Urinary protein concentration was determined by a commercial kit based on the Ponceau method (BayerDiagnostics, Madrid, Spain). Serum creatinine levels (in milligrams per decilitre) were determined by Jaffés method on an autoanalyzer (Beckman Instruments, Palo Alto, Calif.) at the end of the follow-up. Anti-DNA antibodies levels of anti-DNA antibodies were measured before treatment, and subsequently each month and at sacrifice, using a commercially available ELISA kit (Alpha Diagnostic International, San Antonio, Tex., USA) according to manufacturer's instructions (serum diluted 1:100). This kit is based on a purified dsDNA coated microwell plate. Antibodies to dsDNA are directed against the phosphate-deoxyribose backbone of the DNA molecule. Anti-dsDNA from serum samples bind to extracted nuclear antigen immobilized on microtiter wells. Anti-mouse IgG-HRP conjugate is added, and the colour developed by chromogenic substrate addition. The enzymatic reaction (blue colour) is directly proportional to the amount of the anti-dsDNA in the sample. Kits contain positive and negative controls, and anti-DNA antibodies are estimated in a semi-quantitative way according to the optical density (o.d. 450).

NZB/W F1 female mice [3] = assay: Proteinuria and renal function, murine lupus nephritis; conditions: vs. control, FIG. 3
Experimental: as §1

NZB/W F1 female mice [4] = assay: Renal immunofluorescence of glomerular IgG and C3 deposition, murine lupus nephritis; conditions: FIG. 7
Experimental: Renal immunofluorescence. For analysis of Ig and complement deposition, fluorescent staining of cryosections was used. Five-micrometer cryostat sections were fixed in acetone at −80° C. for 20 minutes, then blocked with 20% normal goat serum and directly stained with FITC-conjugated goat anti-mouse IgG at 1/300 (Sigma-Aldrich). To stain for complement, slides were then sequentially incubated in rat anti-mouse complement C3, at 1/50 (Cedarlane Laboratories Limited), followed by Alexa Fluor 546-conjugated goat anti-rat IgG at 1/1000 (Invitrogen, Molecular Probes). At least 30 glomeruli, visualized and photographed with an immunofluorescence microscope, from each animal were examined in a binded manner. A semiquantitative score of staining intensity and distribution from 0 to 4+ was given, where 0+ denotes no signal; 1+, minimal signal; 2+, low signal; 3+, moderate signal and 4+, strong signal intensity.

NZB/W F1 female mice [5] = assay: Spleen weight and splenocyte B cell populations, murine lupus nephritis; conditions: FIG. 9

O=P1(N(CCCl)CCCl)NCCCO1 (centres unmarked) [CYP, cyclophosphamide]
Cumulative survival analyzed by the Kaplan-Meier method (NZB/W F1 female mice [1]): 100%
anti-dsDNA titers (NZB/W F1 female mice [2]): lower
proteinuria (NZB/W F1 female mice [3]): significantly lower
glomerular deposition of C3 (NZB/W F1 female mice [4]): more effective in reducing C3 deposition than costimulatory blockade
proportion of B cells in splenocytes (NZB/W F1 female mice [5]): markedly reduced
